Source: ChEMBL document CHEMBL1130546, “Oligopresentation of protease inhibitors with -cyclodextrin as template” (Bioorg Med Chem Lett, 1997)
Where a SMILES comes first, the peptide text is derived from it. [ ]: non-standard residue; d: D form. Nle = CCCC[C@H](N)C(=O)O

Columns and labels:
Cathepsin B = Cathepsin B (Homo sapiens, UniProt P07858); assay: Equilibrium dissociation constant for the inhibition of human cathepsin B was determined
[1] = target: T1, Calpain-1 catalytic subunit (Homo sapiens, UniProt P07384); assay: Equilibrium dissociation constant for the inhibition of human Mu-calpain was determined
T1 sequence (P07384 whole entry): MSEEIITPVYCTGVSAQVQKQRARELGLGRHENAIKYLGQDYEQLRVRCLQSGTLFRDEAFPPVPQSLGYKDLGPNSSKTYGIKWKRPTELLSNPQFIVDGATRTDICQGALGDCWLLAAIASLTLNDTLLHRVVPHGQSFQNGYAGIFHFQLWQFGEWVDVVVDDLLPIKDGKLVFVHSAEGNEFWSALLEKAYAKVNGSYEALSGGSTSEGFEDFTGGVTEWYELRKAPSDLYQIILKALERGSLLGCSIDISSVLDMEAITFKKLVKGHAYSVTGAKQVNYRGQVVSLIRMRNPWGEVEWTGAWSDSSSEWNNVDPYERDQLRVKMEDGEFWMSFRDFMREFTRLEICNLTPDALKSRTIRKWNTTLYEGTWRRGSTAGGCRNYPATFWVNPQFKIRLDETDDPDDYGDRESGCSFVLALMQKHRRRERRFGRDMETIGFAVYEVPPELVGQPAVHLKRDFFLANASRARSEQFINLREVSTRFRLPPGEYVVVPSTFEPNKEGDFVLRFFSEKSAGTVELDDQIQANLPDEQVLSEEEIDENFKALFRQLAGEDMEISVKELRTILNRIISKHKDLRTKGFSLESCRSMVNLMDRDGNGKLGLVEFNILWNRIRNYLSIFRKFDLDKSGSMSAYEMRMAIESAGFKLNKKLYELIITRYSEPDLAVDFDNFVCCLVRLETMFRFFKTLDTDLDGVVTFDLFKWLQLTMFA

- Ki (Cathepsin B): 1 nM
- Ki [1]: 3.4 nM
SMILES: CCCC[C@H](NC(=O)[C@H](CC(C)C)NC(=O)[C@H](CC(C)C)NC(C)=O)C(=O)O (Ac-Leu-Leu-[Nle]-OH)
